Read-outs that look alike come from different tables or passages of the source.
Experiments:
[1] = system: female mice (NMRI strain); assay: animal or person; format: in vivo; conditions: for ED (100%): Mus musculus, 0.5 h; for ED (100%) / ED 100% (dose which increases the reaction time by 100%): 30 minutes after administration; for Q (enteral activity: quotient of ED 100% for intraperitoneal and oral administration): i.p. ED 100% / oral ED 100%, 30 min; for Maximum action, Δ% (increase in reaction time): maximum increase without fatalities
Experimental: (§1) The model used for testing the analgesic action was the tail flick test of D'AMOUR and SMITH (J. Pharmacol. 72 (1941), 74-79). In this experiment, the compounds to be tested were administered intraperitoneally or orally, as aqueous solutions (injection volume 10 ml/kg) to groups of 10 female mice (NMRI strain) weighing 20-22 g each.
(§2) Pain reactions are caused before, and 30 minutes after, the administration of the compound, by means of thermal irritation (the tail being exposed to focused heat radiation from a halogen lamp for at most 30 seconds).
(§3) The time until the tail is drawn out of the radiation zone by reflex action is measured, and taken as the reaction time. Its average value, for 670 untreated animals, is 6.5±0.29 sec.
(§4) Analgesic substances increase the reaction time, to an extent depending on the dose. There is a linear relationship between the logarithms of the doses (mg/kg) and of the relative increase in reaction time (Δ%), from which the dose, defined as the ED 100%, which doubles the reaction time can be calculated by means of regression analysis. For a radiation exposure period of at most 30 seconds, the maximum possible increase in the reaction time is about 360%.

[2] = acute lethal dose (LD 50) for intraperitoneal administration; format: in vivo; conditions: for Relative toxicity: Nefopam = 1.00
From the text: The comparatively low toxicity of the novel compounds can also be deduced from the acute lethal dose (LD 50) for intraperitoneal administration (Table 2). The LD 50 values are from about 90% to 240% higher than those of Nefopam.

in vivo = format: in vivo, mice (NMRI strain); conditions: mouse, in vivo, read-out: treated animals killed
Experimental: as §1, §2, §3, §4

[3] = ip, read-out: ED 100% (dose which increases the reaction time by 100%), intraperitoneal administration
[4] = po, read-out: ED 100% (dose which increases the reaction time by 100%), oral administration
[5] = intraperitoneal administration, Nefopam = 1.00
[6] = intraperitoneal administration, dose of maximum action
[7] = oral administration, Nefopam = 1.00
[8] = oral administration, dose of maximum action

| SMILES | ED (100%) [1, 3] [mg/kg] | ED (100%) [1, 4] [mg/kg] | Q (enteral activity: quotient of ED 100% for intraperitoneal and oral administration) [1] | relative activity [1, 5] | Maximum action, mg/kg (dose) [1, 6] [mg/kg] | Maximum action, Δ% (increase in reaction time) ([1]; intraperitoneal administration) [%] | relative activity [1, 7] | Maximum action, mg/kg (dose) [1, 8] [mg/kg] | Maximum action, Δ% (increase in reaction time) ([1]; oral administration) [%] | Relative toxicity [2] | LD50 ([2]; in vivo, ip, read-out: LD 50) [mg/kg] | also measured |
| --- | --- | --- | --- | --- | --- | --- | --- | --- | --- | --- | --- | --- |
| COc1cccc([C@@]23CCCC[C@@H]2CN(C)CCO3)c1 (relative stereo) [Example 3, 4-methyl-9a-(3-methoxyphenyl)-perhydro-1,4-benzoxazepine] | 11.4 | 17 | 0.67 | 0.71 | 46.4 | 416 | 2.73 | 100 | 397 | 0.52 | 110 | – |
| COc1cccc([C@@]23CCC[C@@H]2CN(C)CCO3)c1 (relative stereo) [Example 6] | 4.66 | 9.49 | 0.49 | 1.73 | 46.4 | 380 | 4.89 | 46.4 | 364 | 0.45 | 127 | – |
| COc1cccc([C@@]23CCCC[C@@H]2CN(C)CCO3)c1 (single isomer, unassigned) [9 (-), (-)-4-Methyl-9a-(3-methoxyphenyl)-perhydro-1,4-benzoxazepine] | 11 | 17.6 | 0.63 | – | – | 348 | 2.64 | – | 397 | 0.40 | 145 | Maximum action, mg/kg (dose) ([1]; mouse, in vivo, ip): 46.4 mg/kg; relative activity ([1]; mouse, in vivo, ip): 0.74; Maximum action, mg/kg (dose) ([1]; mouse, in vivo, po): 100 mg/kg |
| COc1cccc([C@@]23CCCC[C@@H]2CN(C)CCO3)c1 (single isomer, unassigned) [9 (+), (+)-4-Methyl-9a-(3-methoxyphenyl)-perhydro-1,4-benzoxazepine] | – | – | 0.71 | 0.48 | 46.4 | 249 | 1.97 | 100 | 370 | 0.52 | – | ED 100% (dose which increases the reaction time by 100%) ([1]; intraperitoneal administration): 16.7 mg/kg; ED 100% (dose which increases the reaction time by 100%) ([1]; oral administration): 23.5 mg/kg; LD50 [2]: 110 mg/kg |
| CN1CCOC(c2ccccc2)c2ccccc2C1 (centres unmarked) [Nefopam, 5-methyl-1-phenyl-3,4,5,6-tetrahydro-1H-benz[f]-2,5-oxazocine, reference compound] | – | – | 0.17 | – | 21.5 | 192 | 1.00 | 46.4 | 93 | 1.00 | 57.3 | mortality (in vivo; ip, 46.4 mg/kg administered intraperitoneally): 60%; mortality (in vivo; po, 100 mg/kg administered orally): 60%; animals died ([1]; 46.4 mg/kg intraperitoneally): 6 out of 10 animals; animals died ([1]; 100 mg/kg orally): 6 out of 10 animals; ED (100%) ([1]; oral administration, read-out: ED 100% (dose which increases the reaction time by 100%)): 46.4 mg/kg; ED (100%) ([1]; ip, intraperitoneal administration, read-out: ED 100% (dose which increases the reaction time by 100%)): 8.08 mg/kg |
| CN1CCO[C@]2(c3cccc(O)c3)CCCC[C@@H]2C1 (relative stereo) [Example 7, 4-Methyl-9a-(3-hydroxyphenyl)-perhydro-1,4-benzoxazepine] | 6.55 | 18.6 | 0.35 | 1.23 | 46.4 | 364 | 2.50 | 46.4 | 332 | 0.35 | 165 | – |
| CC(=O)Oc1cccc([C@@]23CCCC[C@@H]2CN(C)CCO3)c1 (relative stereo) [Example 7 β, 4-Methyl-9a-(3-acetoxyphenyl)-perhydro-1,4-benzoxazepine] | 12.6 | 13.1 | 0.96 | – | – | 275 | 3.54 | – | 280 | 0.30 | 194 | Maximum action, mg/kg (dose) ([1]; mouse, in vivo, ip): 46.4 mg/kg; relative activity ([1]; mouse, in vivo, ip): 0.64; Maximum action, mg/kg (dose) ([1]; mouse, in vivo, po): 100 mg/kg |

Source: patent US4336263A, “1,4-Cycloalkano-oxazepines, salts thereof and analgesic uses thereof” (priority 1978, dated 1982)
